Laboratory results taken from article PMC11794477 (Nature Communications, 2025).

Columns and labels:
[1] = target: T1, Fetal Liver Tyrosine Kinase 3 (FLT3) (Homo sapiens, UniProt P36888); assay: SelectScreen kinase profiling at ATP Km, with dose-response follow-up; type: biochemical
T1 sequence (P36888 27-993): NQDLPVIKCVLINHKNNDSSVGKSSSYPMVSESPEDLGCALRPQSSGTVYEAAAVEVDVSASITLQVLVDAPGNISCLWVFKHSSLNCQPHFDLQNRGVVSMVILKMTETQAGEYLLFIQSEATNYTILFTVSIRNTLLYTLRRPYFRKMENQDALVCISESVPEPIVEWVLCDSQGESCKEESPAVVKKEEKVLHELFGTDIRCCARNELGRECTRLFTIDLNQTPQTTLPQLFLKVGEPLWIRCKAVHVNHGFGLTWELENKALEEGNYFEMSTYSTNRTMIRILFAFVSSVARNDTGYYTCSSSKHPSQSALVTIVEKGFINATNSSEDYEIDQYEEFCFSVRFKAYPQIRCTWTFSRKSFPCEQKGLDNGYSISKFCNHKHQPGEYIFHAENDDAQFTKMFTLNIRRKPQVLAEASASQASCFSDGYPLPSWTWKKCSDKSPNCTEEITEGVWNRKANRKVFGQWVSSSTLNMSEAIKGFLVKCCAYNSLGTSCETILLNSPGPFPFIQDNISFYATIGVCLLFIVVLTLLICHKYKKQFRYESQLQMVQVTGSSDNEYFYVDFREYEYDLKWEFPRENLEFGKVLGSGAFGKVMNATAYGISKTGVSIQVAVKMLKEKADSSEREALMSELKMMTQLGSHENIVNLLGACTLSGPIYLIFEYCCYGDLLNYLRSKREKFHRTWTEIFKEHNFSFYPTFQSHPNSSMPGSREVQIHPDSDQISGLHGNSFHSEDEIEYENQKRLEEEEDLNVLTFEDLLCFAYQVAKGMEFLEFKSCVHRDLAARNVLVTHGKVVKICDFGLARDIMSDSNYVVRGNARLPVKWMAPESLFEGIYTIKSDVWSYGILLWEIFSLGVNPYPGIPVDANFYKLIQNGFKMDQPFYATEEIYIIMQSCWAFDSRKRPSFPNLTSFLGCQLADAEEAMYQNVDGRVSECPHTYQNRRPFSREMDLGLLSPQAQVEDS

OLIG2 = target: T2, OLIG2 (Homo sapiens, UniProt Q13516); type: cell-based
T2 sequence (Q13516 1-323): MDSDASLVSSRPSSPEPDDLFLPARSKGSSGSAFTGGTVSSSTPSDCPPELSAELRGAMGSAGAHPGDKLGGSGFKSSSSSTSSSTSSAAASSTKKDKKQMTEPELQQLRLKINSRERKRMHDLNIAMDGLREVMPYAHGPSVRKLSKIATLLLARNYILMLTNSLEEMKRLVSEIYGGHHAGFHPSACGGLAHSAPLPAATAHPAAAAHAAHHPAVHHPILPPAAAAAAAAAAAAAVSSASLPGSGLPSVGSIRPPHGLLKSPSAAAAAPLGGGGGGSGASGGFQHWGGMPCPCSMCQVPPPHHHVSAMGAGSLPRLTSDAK

[2] = target: T3, Discoidin Domain Receptor Tyrosine Kinase 2 (DDR2 N456S) (Homo sapiens, UniProt Q16832, N456S); assay: SelectScreen kinase profiling at […] CT-179, ATP at Km; type: biochemical
T3 sequence (Q16832 22-855 N456S): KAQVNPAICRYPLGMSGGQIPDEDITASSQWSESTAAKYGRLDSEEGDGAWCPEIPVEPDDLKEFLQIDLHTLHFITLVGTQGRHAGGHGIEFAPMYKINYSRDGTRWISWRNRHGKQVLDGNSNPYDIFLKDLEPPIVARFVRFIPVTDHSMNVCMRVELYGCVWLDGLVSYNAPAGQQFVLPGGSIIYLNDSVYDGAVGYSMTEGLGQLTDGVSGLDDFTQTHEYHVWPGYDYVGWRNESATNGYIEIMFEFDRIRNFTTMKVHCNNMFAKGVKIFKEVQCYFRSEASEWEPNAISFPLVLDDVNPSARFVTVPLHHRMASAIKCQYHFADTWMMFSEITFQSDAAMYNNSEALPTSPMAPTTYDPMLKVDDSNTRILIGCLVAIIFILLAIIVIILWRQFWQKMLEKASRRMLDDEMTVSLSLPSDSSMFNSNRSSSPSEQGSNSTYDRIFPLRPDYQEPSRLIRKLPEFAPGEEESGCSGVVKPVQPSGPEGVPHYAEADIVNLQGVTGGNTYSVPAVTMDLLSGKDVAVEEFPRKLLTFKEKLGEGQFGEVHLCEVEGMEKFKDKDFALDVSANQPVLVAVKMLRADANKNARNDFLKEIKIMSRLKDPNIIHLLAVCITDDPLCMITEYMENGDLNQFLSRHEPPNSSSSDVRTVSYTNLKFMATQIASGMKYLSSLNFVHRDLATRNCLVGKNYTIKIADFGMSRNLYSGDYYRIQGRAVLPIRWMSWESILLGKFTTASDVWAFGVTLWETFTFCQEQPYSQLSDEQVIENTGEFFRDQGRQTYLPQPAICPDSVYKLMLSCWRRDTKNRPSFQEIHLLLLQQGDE

SMILES: Cc1cc(NCCCN(C)C)nc(NC(=O)Nc2ccc(Cl)c(Cl)c2)n1 [CT-179]
- IC50 [1]: 20 nM
- IC50 (OLIG2): 1250 nM
- % inhibition at 1 μM [2]: 87
